How the values were obtained:
Format in all cases: in vivo
Plutella xylostella = Plutella xylostella (Diamond Back Moth) artificial diet MTP test; settings: 144 h, 200 ppm (concentration in well 18 ppm), L2 larvae, 6 days, larval mortality, growth regulation
Thrips tabaci = Thrips tabaci (Onion Thrips) sunflower leaf disc spray test; settings: foliar, 168 h, 200 ppm spray on sunflower leaf discs, population of mixed ages, 7 days, mortality
Heliothis virescens = Heliothis virescens (Tobacco Budworm) egg test on artificial diet; settings: 96 h, 200 ppm (concentration in well 18 ppm), eggs 0-24 h old on artificial diet, 4 days, egg mortality, larval mortality, growth regulation
Diabrotica balteata = Diabrotica balteata (Corn Root Worm) artificial diet MTP test; settings: 120 h, 200 ppm (concentration in well 18 ppm), L2 larvae, 5 days, larval mortality, growth regulation
Spodoptera littoralis = Spodoptera littoralis (Egyptian Cotton Leafworm) cotton leaf disc spray test; settings: foliar, 72 h, 200 ppm spray on cotton leaf discs, L1 larvae, mortality, feeding behavior, growth regulation 3 DAT

Measured: pest or weed control at 200 ppm

CCc1cc(C(F)(C(F)(F)F)C(F)(F)C(F)(F)F)cc(C)c1NC(=O)c1cccc(NC(=O)c2cccc(Cl)c2)c1OC (centres unmarked) [A8]
≥ 80%: all assays above

CCc1cc(C(F)(C(F)(F)F)C(F)(F)C(F)(F)F)cc(C)c1NC(=O)c1cccc(NC(=O)c2ccccc2Cl)c1OC (centres unmarked) [A9]
≥ 80%: all assays above

CCc1cc(C(F)(C(F)(F)F)C(F)(F)C(F)(F)F)cc(C)c1NC(=O)c1cccc(NC(=O)c2ccccc2)c1OC (centres unmarked) [A19]
≥ 80%: all assays above

CCc1cc(C(F)(C(F)(F)F)C(F)(F)C(F)(F)F)cc(C)c1NC(=O)c1cccc(NC(=O)c2cccc(F)c2F)c1OC (centres unmarked) [A20]
≥ 80%: all assays above

COc1c(NC(=O)c2ccccc2C(F)(F)F)cccc1C(=O)Nc1c(Cl)cc(C(F)(C(F)(F)F)C(F)(F)C(F)(F)F)cc1Br (centres unmarked) [B20]
≥ 80%: all assays above

COc1c(NC(=O)c2ccc(C(C)C)cc2)cccc1C(=O)Nc1c(Cl)cc(C(F)(C(F)(F)F)C(F)(F)C(F)(F)F)cc1Br (centres unmarked) [B25]
≥ 80%: all assays above

COc1c(NC(=O)c2cc(Cl)ccc2Cl)cccc1C(=O)Nc1c(Cl)cc(C(F)(C(F)(F)F)C(F)(F)C(F)(F)F)cc1Br (centres unmarked) [B27]
≥ 80%: all assays above

COc1c(NC(=O)c2c(-c3ccccc3)noc2C)cccc1C(=O)Nc1c(Cl)cc(C(F)(C(F)(F)F)C(F)(F)C(F)(F)F)cc1Br (centres unmarked) [B46]
≥ 80%: Thrips tabaci

COc1c(NC(=O)c2ccc(-c3ccccc3)o2)cccc1C(=O)Nc1c(Cl)cc(C(F)(C(F)(F)F)C(F)(F)C(F)(F)F)cc1Br (centres unmarked) [B49]
≥ 80%: Thrips tabaci

COc1c(NC(=O)c2cc(C(F)(F)F)n(C)n2)cccc1C(=O)Nc1c(Cl)cc(C(F)(C(F)(F)F)C(F)(F)C(F)(F)F)cc1Br (centres unmarked) [B92]
≥ 80%: Thrips tabaci | Diabrotica balteata | Spodoptera littoralis

COc1c(NC(=O)c2cnccc2C(F)(F)F)cccc1C(=O)Nc1c(Cl)cc(C(F)(C(F)(F)F)C(F)(F)C(F)(F)F)cc1Br (centres unmarked) [B126]
not listed: Thrips tabaci
≥ 80%: all other assays above

COc1c(NC(=O)c2cc([N+](=O)[O-])c(F)cc2Cl)cccc1C(=O)Nc1c(Cl)cc(C(F)(C(F)(F)F)C(F)(F)C(F)(F)F)cc1Br (centres unmarked) [B130]
not listed: Thrips tabaci
≥ 80%: all other assays above

COc1c(NC(=O)c2cn(C)nc2C(F)F)cccc1C(=O)Nc1c(Cl)cc(C(F)(C(F)(F)F)C(F)(F)C(F)(F)F)cc1Br (centres unmarked) [B131]
not listed: Thrips tabaci
≥ 80%: all other assays above

COc1c(NC(=O)c2cc(C)oc2C(F)(F)F)cccc1C(=O)Nc1c(Cl)cc(C(F)(C(F)(F)F)C(F)(F)C(F)(F)F)cc1Br (centres unmarked) [B144]
not listed: Thrips tabaci
≥ 80%: all other assays above

COc1c(NC(=O)c2ccc([N+](=O)[O-])c(C)c2I)cccc1C(=O)Nc1c(Cl)cc(C(F)(C(F)(F)F)C(F)(F)C(F)(F)F)cc1Br (centres unmarked) [B161]
not listed: Spodoptera littoralis
≥ 80%: all other assays above

COc1c(NC(=O)c2ccc([N+](=O)[O-])c(C)c2Br)cccc1C(=O)Nc1c(Cl)cc(C(F)(C(F)(F)F)C(F)(F)C(F)(F)F)cc1Br (centres unmarked) [B162]
not listed: Spodoptera littoralis
≥ 80%: all other assays above

COc1c(NC(=O)c2ccc([N+](=O)[O-])c(C)c2Cl)cccc1C(=O)Nc1c(Cl)cc(C(F)(C(F)(F)F)C(F)(F)C(F)(F)F)cc1Br (centres unmarked) [B163]
not listed: Spodoptera littoralis
≥ 80%: all other assays above

COc1cccc(F)c1C(=O)Nc1cccc(C(=O)Nc2c(Cl)cc(C(F)(C(F)(F)F)C(F)(F)C(F)(F)F)cc2Br)c1OC (centres unmarked) [B166]
not listed: Thrips tabaci
≥ 80%: all other assays above

COc1c(NC(=O)c2ccc(C(F)(F)F)cc2F)cccc1C(=O)Nc1c(Cl)cc(C(F)(C(F)(F)F)C(F)(F)C(F)(F)F)cc1Br (centres unmarked) [B167]
not listed: Plutella xylostella
≥ 80%: all other assays above

COc1c(NC(=O)c2ccc([N+](=O)[O-])c(N(C)C)c2)cccc1C(=O)Nc1c(Cl)cc(C(F)(C(F)(F)F)C(F)(F)C(F)(F)F)cc1Br (centres unmarked) [B175]
not listed: Diabrotica balteata
≥ 80%: all other assays above

COc1c(NC(=O)c2ncc(Cl)cc2Cl)cccc1C(=O)Nc1c(Cl)cc(C(F)(C(F)(F)F)C(F)(F)C(F)(F)F)cc1Br (centres unmarked) [B185]
not listed: Thrips tabaci
≥ 80%: all other assays above

COc1c(NC(=O)c2ccccc2Cl)cccc1C(=O)Nc1c(Cl)cc(C(F)(C(F)(F)F)C(F)(F)F)cc1Cl [E3]
not listed: Plutella xylostella
≥ 80%: all other assays above

COc1c(NC(=O)c2cc(Cl)ccc2F)cccc1C(=O)Nc1c(Cl)cc(C(F)(C(F)(F)F)C(F)(F)F)cc1Cl [E8]
not listed: Thrips tabaci
≥ 80%: all other assays above

COc1c(NC(=O)c2ccc(F)cc2F)cccc1C(=O)Nc1c(C)cc(C(F)(C(F)(F)F)C(F)(F)C(F)(F)F)cc1C (centres unmarked) [F9]
not listed: Thrips tabaci
≥ 80%: all other assays above

COc1c(NC(=O)c2ccc(Cl)c(Cl)c2)cccc1C(=O)Nc1c(C)cc(C(F)(C(F)(F)F)C(F)(F)C(F)(F)F)cc1C (centres unmarked) [F17]
not listed: Thrips tabaci
≥ 80%: all other assays above

COc1c(NC(=O)c2ccc(Cl)cc2)cccc1C(=O)Nc1c(C)cc(C(F)(C(F)(F)F)C(F)(F)C(F)(F)F)cc1C (centres unmarked) [F19]
not listed: Thrips tabaci
≥ 80%: all other assays above

COc1cccc(C(=O)Nc2cccc(C(=O)Nc3c(C)cc(C(F)(C(F)(F)F)C(F)(F)C(F)(F)F)cc3C)c2OC)c1 (centres unmarked) [F22]
not listed: Thrips tabaci
≥ 80%: all other assays above

COc1c(NC(=O)c2ccc([N+](=O)[O-])c(C)c2)cccc1C(=O)Nc1c(C)cc(C(F)(C(F)(F)F)C(F)(F)C(F)(F)F)cc1C (centres unmarked) [F23]
not listed: Thrips tabaci
≥ 80%: all other assays above

COc1c(NC(=O)c2ccc(C(F)(F)F)cc2)cccc1C(=O)Nc1c(C)cc(C(F)(C(F)(F)F)C(F)(F)C(F)(F)F)cc1C (centres unmarked) [F26]
not listed: Thrips tabaci
≥ 80%: all other assays above

— patent US20120295907A1, “INSECTICIDAL COMPOUNDS” (SYNGENTA CROP PROTECTION, LLC, priority 2009, published 2012)
